Among the data in patent US20160016907A1, “PYRIDINE DERIVATIVES AS MUSCARINIC M1 RECEPTOR POSITIVE ALLOSTERIC MODULATORS” (PFIZER INC., priority 2014, published 2016) are EC50 values, retold here.

The experiment addresses T1, human M1 muscarinic acetylcholine receptors (Homo sapiens, UniProt P11229).
T1 sequence (P11229 1-460): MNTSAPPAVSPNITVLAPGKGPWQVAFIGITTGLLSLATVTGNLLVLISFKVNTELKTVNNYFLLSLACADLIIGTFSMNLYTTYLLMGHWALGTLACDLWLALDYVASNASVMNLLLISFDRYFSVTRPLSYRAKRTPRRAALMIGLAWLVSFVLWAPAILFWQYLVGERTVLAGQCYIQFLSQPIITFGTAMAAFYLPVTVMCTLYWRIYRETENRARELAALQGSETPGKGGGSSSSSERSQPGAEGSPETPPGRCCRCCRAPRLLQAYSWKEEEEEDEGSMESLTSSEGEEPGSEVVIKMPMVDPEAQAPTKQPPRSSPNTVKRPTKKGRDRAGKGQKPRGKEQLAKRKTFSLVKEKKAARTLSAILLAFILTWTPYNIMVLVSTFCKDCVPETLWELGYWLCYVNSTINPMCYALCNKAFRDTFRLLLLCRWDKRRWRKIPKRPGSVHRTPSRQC
Put plainly: M1 FLIPR assay (PAM, intracellular calcium). It counts as cell-based. As to conditions: potentiation of EC10-EC30 acetylcholine, values marked a: geometric mean of ≧7 determinations, read-out: M1 PAM Inflection Point (μM) Geometric mean of 2-6 determinations (unless otherwise indicated). The protocol:
This assay was designed to select and characterize compounds that affect the activity of human M1 muscarinic acetylcholine receptors (Similar M1 PAM FLIPR assays can be found, for example, at U.S. Pat. No. 8,664,234). Human M1 receptors were stably expressed in Chinese hamster ovary (CHO) cells (HD Bioscience). The effect of test compounds on intracellular calcium was measured on an FLIPR Tetra (Molecular Devices) using the Fluo-8, AM calcium dye (Molecular Probes) with a red dye quenching agent (Sigma).
CHO cells expressing hM1 cells had been previously cultured and frozen in assay ready vials. Cell vials were thawed, then plated at a density of 10,000 cells per well in a 384 well black wall, clear bottom plate (Greiner #781090) and incubated overnight at 37 degrees C. with 5% CO2. Cells were grown and plated in F12 nutrient media (Gibco BRL #21700-075) supplemented with 10% FBS (Hyclone #CH30160.03) and Pen/Strep (Gibco #15070-063).
After overnight incubation, cell plates were removed from the incubator and the growth media was discarded and replaced with loading solution containing the following: 2 μM Fluo-8-AM (Molecular Probes #F14242), 2 mM Probenecid (Sigma #P8761), lx Acid Red 1 (Sigma #210633), in HBSS buffer containing (grams/L): 0.1 CaCl2, 0.1 MgCl2*6H2O, 0.049 MgSO4, 0.4 KCl, 0.06 KH2PO4, 8.06 NaCl, 0.12 Na2HPO4*12H2O, 1.1 D-glucose*H2O, 0.35 NaHCO3, 4.766 HEPES, pH 7.4. The plate was incubated in the loading solution at 37 degrees C. in the dark for 1 hour.
Test compounds were initially prepared as 100% DMSO stock solutions, then transferred and serially diluted in 384-well compound plates (Greiner #784201). Each compound was tested at 10 concentrations in duplicate per experiment. Positive and negative controls for positive allosteric modulator evaluation were 30 μM acetylcholine (Ach) and an EC10-EC30 concentration of acetylcholine, approximately 2 nM but could be adjusted for each experiment to maintain the EC10-EC30 range.
After the 1-hour dye loading incubation, test compounds were added to the cell plate containing Fluo-8. Approximately 10 minutes after compound addition, an EC10-EC30 concentration of acetylcholine was added to each well and the fluorescence measured to determine the PAM potentiation of the compound.
Data was exported from the FLIPR Tetra as maximum fluorescence/minimum fluorescence for each well. The percent effect for each compound well was determined using the mean values for the positive and negative controls on each plate for each read. Percent effect was 100*(compound negative control)/(positive control negative control). Dose response curves were fitted to the compound percent effect data using a 4-parameter logistic fit model to determine PAM (positive allosteric modulator) Inflection Point values. Compounds with inverted U dose response curves had the concentrations greater than the concentration giving the peak response excluded from the fit. Data was reported as Inflection Point. The compounds of Examples 1-72 had activity according to this assay, generally with an Inflection Point (IP) of 10 μM or less (using Inflection Point as a measure of activity). Such a result is indicative of the intrinsic activity of the compounds of the invention as M1 allosteric modulators.
For orientation: A change in cytosolic calcium serves as a functional read-out for many receptors and channels.

As for `Cc1cnc(C(=O)N[C@H]2CCCC[C@@H]2O)cc1C(F)c1ccc(-n2cccn2)cc1` (single isomer, unassigned) [Example 64], the EC50 is 0.033 µM. The same measure for `Cc1cnc(C(=O)N[C@H]2CCCC[C@@H]2O)cc1C(F)c1ccc(-n2cccn2)cc1` (single isomer, unassigned) [Example 63]: 8.76 µM. Consider `Cc1cnc(C(=O)NC2CCCCC2(F)F)cc1Cc1ccc(-n2cccn2)cc1` (single isomer, unassigned) [Example 47], for which the EC50 turned out to be 0.57 µM. With `Cc1cnc(C(=O)N[C@H]2CCOC[C@@H]2O)cc1Cc1ccc(-c2cocn2)cc1` [Example 57, N-[(3R,4S)-3-Hydroxytetrahydro-2H-pyran-4-yl]-5-methyl-4-[4-(1,3-oxazol-4-yl)benzyl]pyridine-2-carboxamide], the EC50 amounted to 0.144 µM. Take `Cc1cnc(C(=O)NC2CCCC2O)cc1Cc1ccc(-n2cccn2)cc1` (racemic) [Example 49, N-[cis-2-hydroxycyclopentyl]-5-methyl-4-[4-(1H-pyrazol-1-yl)benzyl]pyridine-2-carboxamide]: the EC50 was determined as 1.63 µM. With `Cc1cnc(C(=O)N[C@@H]2CCCCNC2=O)cc1Cc1ccc(-n2cccn2)cc1` [Example 37, 5-methyl-N-[(3R)-2-oxoazepan-3-yl]-4-[4-(1H-pyrazol-1-yl)benzyl]pyridine-2-carboxamide], the EC50 was determined as 3.56 µM. `Cc1cnc(C(=O)N[C@@H]2CCOC[C@H]2O)cc1Cc1ccc(-n2cccn2)cc1` [Example 8, N-[(3S,4R)-3-Hydroxytetrahydro-2H-pyran-4-yl]-5-methyl-4-[4-(1H-pyrazol-1-yl)benzyl]pyridine-2-carboxamide]: the EC50 turned out to be 4.86 µM.

For `Cc1cnc(C(=O)N[C@H]2CCOC[C@@H]2O)cc1[C@@H](F)c1ccc(-n2cccn2)cc1` [Example 55, 4-{(S)-Fluoro[4-(1H-pyrazol-1-yl)phenyl]methyl}-N-[(3R,4S)-3-hydroxytetrahydro-2H-pyran-4-yl]-5-methylpyridine-2-carboxamide], the EC50 is more than 9.12 µM. In the case of `COc1ccc(Cc2cc(C(=O)N[C@H]3CCCC[C@@H]3O)ncc2C)cc1` [Example 50, N-[(1S,2S)-2-hydroxycyclohexyl]-4-(4-methoxybenzyl)-5-methylpyridine-2-carboxamide], the EC50 worked out at 3.48 µM. With `Cc1cnc(C(=O)N[C@H](CO)C(C)C)cc1Cc1ccc(-n2cccn2)cc1` [Example 38, N-[(2S)-1-hydroxy-3-methylbutan-2-yl]-5-methyl-4-[4-(1H-pyrazol-1-yl)benzyl]pyridine-2-carboxamide] the figure was 3.63 µM; with `O=C(N[C@H]1CCOC[C@@H]1O)c1cc(Cc2ccc(-n3cccn3)cc2)c(Cl)cn1` [Example 52, 5-chloro-N-[(3R,4S)-3-hydroxytetrahydro-2H-pyran-4-yl]-4-[4-(1H-pyrazol-1-yl)benzyl]pyridine-2-carboxamide], 0.187 µM. As to `COc1cnc(C(=O)N[C@H]2CCCC[C@@H]2O)cc1Cc1ccc(-c2cocn2)cc1` [Example 71, N-[(1S,2S)-2-hydroxycyclohexyl]-5-methoxy-4-[4-(1,3-oxazol-4-yl)benzyl]pyridine-2-carboxamide], the EC50 is 0.125 µM. With `Cc1cnc(C(=O)NCC2CC2)cc1Cc1ccc(-n2cccn2)cc1` [Example 40, N-(cyclopropylmethyl)-5-methyl-4-[4-(1H-pyrazol-1-yl)benzyl]pyridine-2-carboxamide] the figure was 9.64 µM; with `Cc1nc(-c2ccc(Cc3cc(C(=O)N[C@H]4CCCC[C@@H]4O)ncc3C)cc2)co1` [Example 23, N-[(1S,2S)-2-hydroxycyclohexyl]-5-methyl-4-[4-(2-methyl-1,3-oxazol-4-yl)benzyl]pyridine-2-carboxamide], 0.363 µM; with `Cc1cnc(C(=O)NCC2CCOCC2)cc1Cc1ccc(-n2cccn2)cc1` [Example 32, 5-methyl-4-[4-(1H-pyrazol-1-yl)benzyl]-N-(tetrahydro-2H-pyran-4-ylmethyl)pyridine-2-carboxamide], 4.6 µM. For the compound `COc1cnc(C(=O)N[C@H]2CCOC[C@@H]2O)cc1Cc1ccc(-c2cscn2)cc1` [Example 68, N-[(3R,4S)-3-hydroxytetrahydro-2H-pyran-4-yl]-5-methoxy-4-[4-(1,3-thiazol-4-yl)benzyl]pyridine-2-carboxamide], the EC50 is 0.074 µM. The same measure for `CO[C@H]1CCCC[C@@H]1NC(=O)c1cc(Cc2ccc(-n3cccn3)cc2)c(C)cn1` [Example 22, N-[(1S,2S)-2-methoxycyclohexyl]-5-methyl-4-[4-(1H-pyrazol-1-yl)benzyl]pyridine-2-carboxamide]: more than 5.99 µM; for `Cc1cnc(C(=O)N[C@H]2CCOC[C@@H]2O)cc1Cc1ccc(-c2cn[nH]c2)cc1` [Example 66, N-[(3R,4S)-3-hydroxytetrahydro-2H-pyran-4-yl]-5-methyl-4-[4-(1H-pyrazol-4-yl)benzyl]pyridine-2-carboxamide]: 0.114 µM. As for `Cc1cnc(C(=O)N[C@H]2CC[C@@H](O)CC2)cc1Cc1ccc(-n2cccn2)cc1` [Example 29, N-(cis-4-hydroxycyclohexyl)-5-methyl-4-[4-(1H-pyrazol-1-yl)benzyl]pyridine-2-carboxamide], the EC50 is 3.82 µM. With `COc1cnc(C(=O)N[C@H]2CCOC[C@@H]2O)cc1Cc1ccc(-c2coc(C)n2)cc1` [Example 58, N-[(3R,4S)-3-Hydroxytetrahydro-2H-pyran-4-yl]-5-methoxy-4-[4-(2-methyl-1,3-oxazol-4-yl)benzyl]pyridine-2-carboxamide], the EC50 worked out at 0.086 µM.
